Test results from patent US11041000B2, “Peptide inhibitors of interleukin-23 receptor and their use to treat inflammatory diseases” (priority 2019, dated 2021).
Numbered stars: 1 amine (or outer) side, 2 acyl side, 3 side chain; on linkers, the order of the positions; unused ones are H or OH. Bridge positions count the residues as written; N and C are the ends. Square brackets hold non-standard residues; d marks the D form. Peptide text beside a SMILES is read from it. Trp(7-Me) = Cc1cccc2c(C[C@H](N)C(=O)O)c[nH]c12; Abu(4-yl) = O=C([C@H](CC[*:3])N[*:1])[*:2]; 2Nal = N[C@@H](Cc1ccc2ccccc2c1)C(=O)O; AEF = NCCOc1ccc(C[C@H](N)C(=O)O)cc1; Cit = NC(=O)NCCC[C@H](N)C(=O)O; Pen = CC(C)(S)[C@H](N)C(=O)O; αMeK = C[C@](N)(CCCCN)C(=O)O; Aib = CC(C)(N)C(=O)O; βAla = NCCC(=O)O

What was measured:
Format in all cases: in vitro ADME
[1] = Stability in simulated intestinal fluid (SIF); conditions: simulated intestinal fluid with pancreatin, pH 6.8, 37° C., matrix is 100 fold dilution of standard SIF concentration; for half-life at 20 μM: read-out: SIF t½ (converted); for SIF t½: 20 μM
[2] = Stability in human fecal homogenate; conditions: 20% fecal homogenate (supernatant), pH 6.8, 20% human fecal homogenate, anaerobic, 37° C., read-out: t½: Human Feces anaerobic (converted)
Method: (§1) Centrifuged the homogenate at 2800×g for 15 min. The supernatant is taken out and used for incubations. […] The final test compound concentration was 20 μM.

Stability in rat plasma = conditions: both sexes, SD rat plasma, EDTA, 37° C., read-out: t½: Rat Plasma EDTA (converted)
[3] = Stability in cynomolgus monkey fecal homogenate; conditions: 20% fecal homogenate (supernatant), pH 6.8, 20% cynomolgus monkey fecal homogenate, anaerobic, 37° C., read-out: t½: Monkey Feces anaerobic (converted)
Method: as §1

Row | SMILES | half-life at 20 μM [1] [h] | half-life at 20 μM [2] [h] | further results
1 | CC(=O)NCCCC[C@@H]1NC(=O)[C@H](Cc2c[nH]c3c(C)cccc23)NC(=O)[C@H]([C@@H](C)O)NC(=O)[C@H](CC(N)=O)NC(=O)[C@@H](NC(C)=O)C(C)(C)SSC(C)(C)[C@@H](C(=O)N[C@@H](Cc2ccc(OCCN)cc2)C(=O)N[C@@H](Cc2ccc3ccccc3c2)C(=O)N[C@@](C)(CCCCN)C(=O)N[C@@H](CCCCNC(C)=O)C(=O)N[C@@H](CC(N)=O)C(=O)NCCC(N)=O)NC1=O [compound 242] | – | – | SIF t½ [1]: 24 h
2 | CC(=O)NCCCC[C@H](NC(=O)[C@](C)(CCCCN)NC(=O)[C@H](Cc1ccc2ccccc2c1)NC(=O)[C@H](Cc1ccc(OCCN)cc1)NC(=O)[C@H]1NC(=O)[C@H](CCCNC(N)=O)NC(=O)[C@H](Cc2c[nH]c3c(C)cccc23)NC(=O)[C@H]([C@@H](C)O)NC(=O)[C@H](CC(N)=O)NC(=O)[C@@H](NC(C)=O)C(C)(C)SSC1(C)C)C(=O)N[C@@H](CC(N)=O)C(=O)N[C@@H](C(N)=O)[C@H](C)O [compound 263] (Ac-[Pen]NT[Trp(7-Me)][Cit][Pen][AEF][2Nal][αMeK]K(Ac)N[dT]-NH2; disulfide 1-6) | – | – | SIF t½ [1]: 24 h
3 | CC(=O)NCCCC[C@@H]1NC(=O)[C@H](Cc2c[nH]c3c(C)cccc23)NC(=O)[C@H]([C@@H](C)O)NC(=O)[C@H](CC(N)=O)NC(=O)[C@@H](NC(C)=O)C(C)(C)SSC(C)(C)[C@@H](C(=O)N[C@@H](Cc2ccc(OCCN)cc2)C(=O)N[C@@H](Cc2ccc3ccccc3c2)C(=O)N[C@@](C)(CCCCN)C(=O)N[C@@H](CCCCNC(C)=O)C(=O)N[C@@H](CC(N)=O)C(=O)N2CCC[C@H]2C(N)=O)NC1=O [compound 253] | 10 | – | –
4 | CC(=O)NCCCC[C@@H]1NC(=O)[C@@H](NC(C)=O)C(C)(C)SSC(C)(C)[C@@H](C(=O)N[C@@H](Cc2ccc(OCCN)cc2)C(=O)N[C@@H](Cc2ccc3ccccc3c2)C(=O)N[C@@](C)(CCCCN)C(=O)N[C@@H](CCCCNC(C)=O)C(=O)N[C@@H](CC(N)=O)C(=O)NCCC(N)=O)NC(=O)[C@H](CCC(N)=O)NC(=O)[C@H](Cc2c[nH]c3c(C)cccc23)NC(=O)[C@H]([C@@H](C)O)NC1=O [compound 239] | – | – | SIF t½ [1]: 24 h
5 | CC(=O)NCCCC[C@H](NC(=O)[C@](C)(CCCCN)NC(=O)[C@H](Cc1ccc2ccccc2c1)NC(=O)[C@H](Cc1ccc(OCCN)cc1)NC(=O)[C@H]1NC(=O)[C@H](CCCNC(N)=O)NC(=O)[C@H](Cc2c[nH]c3c(C)cccc23)NC(=O)[C@H]([C@@H](C)O)NC(=O)[C@H](CC(N)=O)NC(=O)[C@@H](NC(C)=O)C(C)(C)SSC1(C)C)C(=O)N[C@@H](CC(N)=O)C(=O)NC(C)(C)C(=O)N[C@@H](CCCNC(=N)N)C(N)=O [compound 343] (Ac-[Pen]NT[Trp(7-Me)][Cit][Pen][AEF][2Nal][αMeK]K(Ac)N[Aib]R-NH2; disulfide 1-6) | 13 | 12 | half-life at 20 μM (Stability in rat plasma): > 24 h
6 | CC(=O)NCCCC[C@H](NC(=O)[C@](C)(CC(C)C)NC(=O)[C@H](Cc1ccc2ccccc2c1)NC(=O)[C@H](Cc1ccc(OCCN)cc1)NC(=O)[C@H]1NC(=O)[C@H](CCC(N)=O)NC(=O)[C@H](Cc2c[nH]c3c(C)cccc23)NC(=O)[C@H]([C@@H](C)O)NC(=O)[C@H](CC(N)=O)NC(=O)[C@@H](NC(C)=O)C(C)(C)SSC1(C)C)C(=O)N[C@H](CO)C(=O)NCCC(N)=O [compound 222] | 19 | – | –
7 | CC(=O)NCCCC[C@H](NC(=O)[C@](C)(CCCCN)NC(=O)[C@H](Cc1ccc2ccccc2c1)NC(=O)[C@H](Cc1ccc(OCCN)cc1)NC(=O)[C@H]1NC(=O)[C@H](CCC(N)=O)NC(=O)[C@H](Cc2c[nH]c3c(C)cccc23)NC(=O)[C@H]([C@@H](C)O)NC(=O)[C@H](CCCNC(N)=O)NC(=O)[C@@H](NC(C)=O)C(C)(C)SSC1(C)C)C(=O)N[C@@H](CC(N)=O)C(=O)NCCC(N)=O [compound 238] (Ac-[Pen][Cit]T[Trp(7-Me)]Q[Pen][AEF][2Nal][αMeK]K(Ac)N[βAla]-NH2; disulfide 1-6) | – | – | SIF t½ [1]: 24 h
8 | CCCCCCCC(=O)NCCCC[C@@H]1NC(=O)[C@H](Cc2c[nH]c3c(C)cccc23)NC(=O)[C@H]([C@@H](C)O)NC(=O)[C@H](CC(N)=O)NC(=O)[C@@H](NC(C)=O)C(C)(C)SSC(C)(C)[C@@H](C(=O)N[C@@H](Cc2ccc(OCCN)cc2)C(=O)N[C@@H](Cc2ccc3ccccc3c2)C(=O)N[C@@](C)(CCCCN)C(=O)N[C@@H](CCCCNC(C)=O)C(=O)N[C@@H](CC(N)=O)C(=O)N[C@H](CC(C)C)C(N)=O)NC1=O [compound 317] | – | > 24 | half-life at 20 μM (Stability in rat plasma): > 24 h; half-life at 20 μM [3]: > 24 h
9 | CC(=O)NCCCC[C@@H]1NC(=O)[C@H](Cc2c[nH]c3c(C)cccc23)NC(=O)[C@H]([C@@H](C)O)NC(=O)[C@@H](CC(N)=O)NC(=O)[C@@H](NC(C)=O)C(C)(C)SSC(C)(C)[C@@H](C(=O)N[C@@H](Cc2ccc(OCCN)cc2)C(=O)N[C@@H](Cc2ccc3ccccc3c2)C(=O)N[C@@](C)(CCCCN)C(=O)N[C@@H](CCCCNC(C)=O)C(=O)N[C@@H](CC(N)=O)C(=O)N[C@H](CC(C)C)C(N)=O)NC1=O [compound 338] | – | > 24 | half-life at 20 μM (Stability in rat plasma): > 24 h; half-life at 20 μM [3]: > 24 h
10 | CC(=O)NCCCC[C@@H]1NC(=O)[C@H](Cc2c[nH]c3c(C)cccc23)NC(=O)[C@H]([C@@H](C)O)NC(=O)[C@H](CC(N)=O)NC(=O)[C@@H](NC(C)=O)C(C)(C)SSC(C)(C)[C@@H](C(=O)N[C@@H](Cc2ccc(OCCN)cc2)C(=O)N[C@@H](Cc2ccc3ccccc3c2)C(=O)N[C@@](C)(CCCCN)C(=O)N[C@@H](CCCCNC(C)=O)C(=O)N[C@@H](CC(N)=O)C(=O)N[C@@H](C(N)=O)C(C)C)NC1=O [compound 251] | 20 | – | –
11 | CC(=O)NCCCC[C@H](NC(=O)[C@](C)(CCCCN)NC(=O)[C@H](Cc1ccc2ccccc2c1)NC(=O)[C@H](Cc1ccc(OCCN)cc1)NC(=O)[C@H]1NC(=O)[C@H](CCCCNC(=O)CC(F)(F)F)NC(=O)[C@H](Cc2c[nH]c3c(C)cccc23)NC(=O)[C@H]([C@@H](C)O)NC(=O)[C@H](CC(N)=O)NC(=O)[C@@H](NC(C)=O)C(C)(C)SSC1(C)C)C(=O)N[C@@H](CC(N)=O)C(=O)N[C@H](CC(C)C)C(N)=O [compound 319] | – | > 24 | half-life at 20 μM (Stability in rat plasma): > 24 h; half-life at 20 μM [3]: > 24 h

The next lines start with results.

Row | half-life at 20 μM [1] [h] | half-life at 20 μM [2] [h] | SMILES | further results
12 | 11 | > 19.5 | CC(=O)NCCCC[C@@H]1NC(=O)[C@H](Cc2c[nH]c3c(C)cccc23)NC(=O)[C@H]([C@@H](C)O)NC(=O)[C@H](CC(N)=O)NC(=O)[C@@H](NC(C)=O)C(C)(C)SSC(C)(C)[C@@H](C(=O)N[C@@H](Cc2ccc(OCCN)cc2)C(=O)N[C@@H](Cc2ccc3ccccc3c2)C(=O)N[C@@](C)(CCCCN)C(=O)N[C@@H](CCCCNC(C)=O)C(=O)N[C@@H](CC(N)=O)C(=O)N[C@H](C(N)=O)C(C)C)NC1=O [compound 250] | –
13 | 3 | > 17 | CC(=O)NCCCC[C@@H]1NC(=O)[C@H](Cc2c[nH]c3c(C)cccc23)NC(=O)[C@H]([C@@H](C)O)NC(=O)[C@H](CC(N)=O)NC(=O)[C@@H](NC(C)=O)C(C)(C)SSC(C)(C)[C@@H](C(=O)N[C@@H](Cc2ccc(OCCN)cc2)C(=O)N[C@@H](Cc2ccc3ccccc3c2)C(=O)N[C@@](C)(CCCCN)C(=O)N[C@@H](CCCCNC(C)=O)C(=O)N[C@@H](CC(N)=O)C(=O)N[C@@H](CCCNC(N)=O)C(N)=O)NC1=O [compound 249] | –
14 | – | 15 | CC(=O)NCCCC[C@@H]1NC(=O)[C@H](Cc2c[nH]c3c(C)cccc23)NC(=O)[C@H]([C@@H](C)O)NC(=O)[C@H](CC(N)=O)NC(=O)[C@@H](NC(C)=O)C(C)(C)SSC(C)(C)[C@@H](C(=O)N[C@@H](Cc2ccc(OCCN)cc2)C(=O)N[C@@H](Cc2ccc3ccccc3c2)C(=O)N[C@@](C)(CCCCN)C(=O)N[C@@H](CCCCNC(C)=O)C(=O)N[C@@H](CC(N)=O)C(=O)N[C@@H](CC(C)C)C(N)=O)NC1=O [compound 244] | –
15 | 32 | > 22.3 | CC(=O)NCCCC[C@@H]1NC(=O)[C@H](Cc2c[nH]c3c(C)cccc23)NC(=O)[C@H]([C@@H](C)O)NC(=O)[C@H](CC(N)=O)NC(=O)[C@@H](NC(C)=O)C(C)(C)SSC(C)(C)[C@@H](C(=O)N[C@@H](Cc2ccc(OCCN)cc2)C(=O)N[C@@H](Cc2ccc3ccccc3c2)C(=O)N[C@@](C)(CCCCN)C(=O)N[C@@H](CCCCNC(C)=O)C(=O)N[C@@H](CC(N)=O)C(=O)N[C@@H](Cc2c[nH]cn2)C(N)=O)NC1=O [SEQ ID No. 248, Ac-[Pen]-NT-[W(7-Me)]-[Lys(Ac)]-[Pen]-Phe[4-(2-aminoethoxy)]-[2-Nal]-[a-MeLys]-[Lys(Ac)]-N-H-NH2] | –
16 | 15 | – | CC(=O)NCCCC[C@H](NC(=O)[C@](C)(CC(C)C)NC(=O)[C@H](Cc1ccc2ccccc2c1)NC(=O)[C@H](Cc1ccc(OCCN)cc1)NC(=O)[C@H]1NC(=O)[C@H](CCC(N)=O)NC(=O)[C@H](Cc2c[nH]c3c(C)cccc23)NC(=O)[C@H]([C@@H](C)O)NC(=O)[C@H](CC(N)=O)NC(=O)[C@@H](NC(C)=O)C(C)(C)SSC1(C)C)C(=O)N[C@H](C)C(=O)NCCC(N)=O [compound 209] | –
17 | 4 | – | CC(=O)NCCCC[C@@H]1NC(=O)[C@H](Cc2c[nH]c3c(C)cccc23)NC(=O)[C@H]([C@@H](C)O)NC(=O)[C@H](CCC(N)=O)NC(=O)[C@@H](NC(=O)[C@@H](CCCNC(=N)N)NC(C)=O)CCSC[C@@H](C(=O)N[C@@H](Cc2ccc(OCCN)cc2)C(=O)N[C@@H](Cc2ccc3ccccc3c2)C(=O)N[C@@](C)(CCCCN)C(=O)N[C@@H](CCCCNC(C)=O)C(=O)N[C@@H](CC(N)=O)C(N)=O)NC1=O [compound 326] (Ac-[dR][Abu(4-yl)]QT[Trp(7-Me)]K(Ac)C[AEF][2Nal][αMeK]K(Ac)N-NH2; thioether 2-7) | half-life at 20 μM (Stability in rat plasma): > 24 h
